Assay results from patent publication US10793885B2, “Compositions and methods for making noscapine and synthesis intermediates thereof” (priority 2013, dated 2020).

How the values were obtained:
[1] = biological target: T1, CXE1 (Papaver somniferum, UniProt I3PLR2); assay: In vitro CXE1 assay with purified recombinant protein; assay type: biochemical; settings: native recombinant CXE1, pH 8.0, 30° C., 15 min
T1 construct: corresponding open reading frames were amplified using cDNA derived from total stem RNA of the Bea's Choice chemotype; His-tag (pRSETA leader) (N); made in house; host or cells: Escherichia coli Rosetta (DE3) pLysS
T1 sequence (I3PLR2 1-320): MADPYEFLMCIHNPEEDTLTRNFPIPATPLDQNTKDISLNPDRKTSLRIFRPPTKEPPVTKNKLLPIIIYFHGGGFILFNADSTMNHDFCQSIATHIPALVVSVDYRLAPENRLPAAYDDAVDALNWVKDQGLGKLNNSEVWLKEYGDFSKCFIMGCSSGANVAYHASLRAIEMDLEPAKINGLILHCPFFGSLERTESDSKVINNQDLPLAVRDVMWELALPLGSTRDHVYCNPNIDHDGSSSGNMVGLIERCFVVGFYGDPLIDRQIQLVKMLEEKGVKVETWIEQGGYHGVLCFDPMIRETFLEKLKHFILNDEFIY
Text: (§1) The full-length coding region of CYP82X1 was amplified using cDNA derived from total stem RNA of the Bea's Choice chemotype using Takara Ex Taq DNA polymerase (Fisher Scientific, Ottawa, Canada), and using a primer 5′-[…]-3′ (SEQ ID NO: 607) and reverse primer 5′-[…]-3′ (SEQ ID NO: 608). Owing to problems with heterologous expression in yeast, CYP82X2 was synthesized with the first 60 N-terminal amino acids replaced with the first 43 N-terminal amino acids from the lettuce cytochrome P450 germacrene A oxidase Nguyen, D. T. et al. J. Biol. Chem. 285, 16588-16598 (2010). For heterologous expression of Flag-tagged CYPs in yeast (Saccharomyces cerevisiae), the full-length coding regions of CYP82X1 and CYP82X2 were inserted into the NotI and SpeI restriction sites of the dual plasmid pESC-leu2d::CPR Ro, D.-K., Ouellet, M., Paradise, E. M., Burd, H., Eng, D., Paddon, C. J., Newman, J. D., & Keesling, J. D. BMC Biotech. […] For heterologous expression of CXE1, CXE2, and AT1, corresponding open reading frames were amplified using cDNA derived from total stem RNA of the Bea's Choice chemotype and cloned in-frame an N-terminal His-tag sequence in the Escherichia coli expression vector pRSETA (Invitrogen, Carlsbad, Calif.). […] Microsomal fractions containing recombinant CYP82X1 or CYP82X2 were detected using a-FLAG antibodies, whereas recombinant CPR was detected using α-c-Myc antibodies (FIG. 12 A). […]

[2] = biological target: T2, CXE2 (Papaver somniferum, UniProt A0A0A1EQ07); assay: In vitro CXE2 assay with purified recombinant protein; assay type: biochemical; settings: E. coli produced CXE2
T2 construct: corresponding open reading frames were amplified using cDNA derived from total stem RNA of the Bea's Choice chemotype; His-tag (pRSETA leader) (N); made in house; host or cells: Escherichia coli Rosetta (DE3) pLysS
T2 sequence (A0A0A1EQ07 1-313): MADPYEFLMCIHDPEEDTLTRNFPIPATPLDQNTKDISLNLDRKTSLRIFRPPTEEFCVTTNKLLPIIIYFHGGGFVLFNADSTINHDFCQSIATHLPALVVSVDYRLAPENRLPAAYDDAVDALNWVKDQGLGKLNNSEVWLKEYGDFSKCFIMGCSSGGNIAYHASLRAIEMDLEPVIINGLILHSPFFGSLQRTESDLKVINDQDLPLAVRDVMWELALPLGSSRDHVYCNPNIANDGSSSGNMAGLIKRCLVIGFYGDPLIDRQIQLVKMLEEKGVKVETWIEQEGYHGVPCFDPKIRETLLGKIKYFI
Text: as §1

[3] = biological target: T3, CYP82X2 (UniProt D5J9U8+I3PLR0); assay: In vitro enzyme assay with yeast microsomal fractions containing CYP82X2 (CPR/82X2); assay type: biochemical, Papaver somniferum; settings: yeast microsomes (CPR/82X2), extracted ion chromatograms, FIG. 13
T3 construct: the full-length coding regions of CYP82X1 and CYP82X2 were inserted into the NotI and SpeI restriction sites; FLAG; made in house; host or cells: Saccharomyces cerevisiae YPL 154C:Pep4, microsomal fraction
T3 sequence (D5J9U8+I3PLR0 with tags, fused parts or gaps): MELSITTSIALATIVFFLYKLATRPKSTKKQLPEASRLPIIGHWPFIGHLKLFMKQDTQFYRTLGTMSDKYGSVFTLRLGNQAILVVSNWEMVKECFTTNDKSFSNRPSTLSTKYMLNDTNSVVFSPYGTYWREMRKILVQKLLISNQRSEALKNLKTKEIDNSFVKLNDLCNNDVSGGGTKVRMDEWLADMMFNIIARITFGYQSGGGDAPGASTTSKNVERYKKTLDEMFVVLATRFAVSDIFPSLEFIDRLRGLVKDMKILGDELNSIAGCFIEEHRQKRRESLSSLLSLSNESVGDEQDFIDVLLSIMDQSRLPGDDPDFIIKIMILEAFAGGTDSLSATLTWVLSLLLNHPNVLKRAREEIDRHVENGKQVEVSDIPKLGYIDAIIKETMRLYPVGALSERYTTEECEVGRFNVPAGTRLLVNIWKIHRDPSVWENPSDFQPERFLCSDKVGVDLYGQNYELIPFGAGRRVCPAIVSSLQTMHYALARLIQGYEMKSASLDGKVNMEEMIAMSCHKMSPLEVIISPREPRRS
Text: (§2) The full-length coding region of CYP82X1 was amplified using cDNA derived from total stem RNA of the Bea's Choice chemotype using Takara Ex Taq DNA polymerase (Fisher Scientific, Ottawa, Canada), and using a primer 5′-[…]-3′ (SEQ ID NO: 607) and reverse primer 5′-[…]-3′ (SEQ ID NO: 608). Owing to problems with heterologous expression in yeast, CYP82X2 was synthesized with the first 60 N-terminal amino acids replaced with the first 43 N-terminal amino acids from the lettuce cytochrome P450 germacrene A oxidase Nguyen, D. T. et al. J. Biol. Chem. 285, 16588-16598 (2010). For heterologous expression of Flag-tagged CYPs in yeast (Saccharomyces cerevisiae), the full-length coding regions of CYP82X1 and CYP82X2 were inserted into the NotI and SpeI restriction sites of the dual plasmid pESC-leu2d::CPR Ro, D.-K., Ouellet, M., Paradise, E. M., Burd, H., Eng, D., Paddon, C. J., Newman, J. D., & Keesling, J. D. BMC Biotech. 8, 83 (2008) yielding pESC-Leu2d::CYP82X1/CPR and pESC-Leu2d::CYP82X2/CPR. The protease-deficient yeast strain YPL 154C:Pep4 was transformed with pESC-Leu2d::CYP82X1/CPR and pESC-Leu2d::CYP82X2/CPR. Yeast culture, microsome preparation, and immunoblot analysis were performed as described previously Dang, T.-T. T. & Facchini, P. J. J. Biol. Chem. 289, 2013-2026 (2014). For heterologous expression of CXE1, CXE2, and AT1, corresponding open reading frames were amplified using cDNA derived from total stem RNA of the Bea's Choice chemotype and cloned in-frame an N-terminal His-tag sequence in the Escherichia coli expression vector pRSETA (Invitrogen, Carlsbad, Calif.). CXE1 and CXE2 were individually inserted into the SacI and HindIII restriction sties, whereas AT1 was inserted into the KpnI and HindIII sites, of pRSETA using a primer 5′-[…]-3′ (SEQ ID NO: 609) and reverse primer 5′-[…]-3′ (SEQ ID NO: 610). […] Microsomal fractions containing recombinant CYP82X1 or CYP82X2 were detected using a-FLAG antibodies, whereas recombinant CPR was detected using α-c-Myc antibodies (FIG. 12 A). […]

[4] = biological target: T4, CYP82X1 (Papaver somniferum, UniProt I3V6B7); assay: In vitro enzyme assay with yeast microsomal fractions containing CYP82X1 (CPR/82X1); assay type: biochemical; settings: yeast microsomes (CPR/82X1), extracted ion chromatograms, FIG. 13
T4 construct: The full-length coding region of CYP82X1 was amplified using cDNA derived from total stem RNA of the Bea's Choice chemotype; FLAG; made in house; host or cells: Saccharomyces cerevisiae YPL 154C:Pep4, microsomal fraction
T4 sequence (I3V6B7 1-540): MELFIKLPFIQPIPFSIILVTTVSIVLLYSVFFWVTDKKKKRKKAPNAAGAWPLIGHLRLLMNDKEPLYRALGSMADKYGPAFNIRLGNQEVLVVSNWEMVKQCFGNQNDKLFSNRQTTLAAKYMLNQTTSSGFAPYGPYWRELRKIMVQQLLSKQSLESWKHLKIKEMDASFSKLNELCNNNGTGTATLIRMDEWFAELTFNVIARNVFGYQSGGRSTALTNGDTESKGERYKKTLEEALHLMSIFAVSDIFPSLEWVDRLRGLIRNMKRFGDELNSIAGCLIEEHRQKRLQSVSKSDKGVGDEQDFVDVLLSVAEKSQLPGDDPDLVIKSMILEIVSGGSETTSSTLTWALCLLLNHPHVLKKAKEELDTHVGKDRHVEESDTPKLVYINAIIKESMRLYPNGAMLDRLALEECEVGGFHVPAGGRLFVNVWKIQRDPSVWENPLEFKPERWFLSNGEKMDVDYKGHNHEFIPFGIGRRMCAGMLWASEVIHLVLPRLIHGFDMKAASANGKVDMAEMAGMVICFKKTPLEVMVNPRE
Text: as §2

[5] = biological target: T5, AT1 (Papaver somniferum, UniProt I3PLR4); assay: In vitro AT1 assay with purified recombinant protein; assay type: biochemical; settings: native recombinant AT1, 50 μM acetyl-CoA, pH 8.0, 30° C., 15 min
T5 construct: corresponding open reading frames were amplified using cDNA derived from total stem RNA of the Bea's Choice chemotype; His-tag (pRSETA leader) (N); made in house; host or cells: Escherichia coli Rosetta (DE3) pLysS
T5 sequence (I3PLR4 1-471): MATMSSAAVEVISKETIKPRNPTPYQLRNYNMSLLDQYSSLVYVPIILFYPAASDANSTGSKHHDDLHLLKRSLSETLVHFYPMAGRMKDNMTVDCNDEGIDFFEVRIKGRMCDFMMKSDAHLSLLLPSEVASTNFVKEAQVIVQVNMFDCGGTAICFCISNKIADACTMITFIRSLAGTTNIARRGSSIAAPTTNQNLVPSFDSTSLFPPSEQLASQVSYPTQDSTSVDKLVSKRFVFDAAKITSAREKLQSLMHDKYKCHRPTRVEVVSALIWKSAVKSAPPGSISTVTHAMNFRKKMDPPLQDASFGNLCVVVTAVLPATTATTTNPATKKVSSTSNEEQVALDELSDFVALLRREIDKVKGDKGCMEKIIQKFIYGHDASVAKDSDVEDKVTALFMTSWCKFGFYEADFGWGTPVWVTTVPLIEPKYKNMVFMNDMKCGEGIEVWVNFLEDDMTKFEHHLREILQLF
Text: as §1

| Structure (SMILES) | conversion as substrate by CXE1 [1] | conversion as substrate by CXE2 [2] | conversion as substrate by CYP82X2 [3] | conversion as substrate by CYP82X1 [4] | conversion as substrate by AT1 [5] |
| --- | --- | --- | --- | --- | --- |
| COc1ccc(C(OC(C)=O)C2c3c(cc4c(c3OC)OCO4)CCN2C)c(C=O)c1OC (centres unmarked) [3-O-acetylpapaveroxine] | yielding papaveroxine | form narcotine hemiacetal | – | – | – |
| COc1ccc2c(c1OC)C[N+]1(C)CCc3cc4c(c(O)c3C1C2O)OCO4 [(S)-1,13-dihydroxy-N-methylcanadine] | – | – | No products were detected | No products were detected | forming (S)-1-hydroxy-13-O-acetyl-N-methylcanadine |
